Tests used:
Type in all cases: in vivo
Scirpus juncoides = experiment: Test Example 1: herbicidal activity, application before weed generation in submerged conditions (symbol B); conditions: application herbicide amount 320 g/ha
Summary of the method: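 Flooded alluvial soil (4 cm water) was mixed-sown with the three weed species, and 2.5-leaf rice seedlings were transplanted. On sowing day, a water-diluted emulsion at a predetermined rate was applied to the water surface. After 3 weeks in a 25–30 °C greenhouse, effect was scored 0–5.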

[1] = test system: Echinochloa crus-galli var. crus-galli; experiment: Test Example 3: herbicidal effect by foliage application, Wagner pot (symbol H); conditions: application herbicide amount 320 g/ha
Summary of the method: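 Rating at 3 weeks post-spray, by defined criteria. Treatment: emulsion diluted with water to a predetermined amount, applied evenly to foliage of 14-day-old plants raised in alluvial soil flooded 0.1–0.5 cm deep at 25–30 °C, rice co-sown.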

Setaria viridis = experiment: Test Example 4: herbicidal effect by soil treatment (symbol G)
Summary of the method: (§1)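 Seeds were sown in sterilized diluvial soil, covered with about 1.5 cm of soil, and the soil surface was sprayed with a water-diluted emulsion of the compound at a predetermined rate. Plants grew in a greenhouse at 25° C. to 30° C.; effects were scored visually 3 weeks after application.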

[2] = test system: Echinochloa crus-galli var. crus-galli; experiment: Test Example 4: herbicidal effect by soil treatment (symbol H)
Summary of the method: as §1

Alopecurus myosuroides = experiment: Test Example 4: herbicidal effect by soil treatment (symbol J)
Summary of the method: as §1

Lolium multiflorum Lam. = experiment: Test Example 4: herbicidal effect by soil treatment (symbol K)
Summary of the method: as §1

Stellaria media = experiment: Test Example 4: herbicidal effect by soil treatment (symbol P)
Summary of the method: as §1

corn [3] = experiment: Test Example 4: effect on crop by soil treatment (symbol c)
Summary of the method: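 The test used sterilized diluvial soil. Seed was set down in spots and overlaid with about 1.5 cm of soil before growth in a greenhouse kept at 25° C. to 30° C.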

rice = experiment: Test Example 4: effect on crop by soil treatment (symbol b)
Summary of the method: (§2)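 Grown at 25° C. to 30° C. in a greenhouse, the crops came from seed sown spot-wise in sterilized diluvial soil under roughly 1.5 cm of covering soil.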

wheat [4] = experiment: Test Example 4: effect on crop by soil treatment (symbol e)
Summary of the method: as §2

Digitaria ciliaris = experiment: Test Example 5: herbicidal effect by foliage application, plastic box (symbol F); conditions: 320 g/ha, 3 weeks after application
Summary of the method: (§3)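 Sowing in sterilized diluvial soil, 14 days' greenhouse growth at 25° C. to 30° C., then uniform small-sprayer foliar application of aqueous emulsion dilution; plants scored three weeks afterwards.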

Apera spica-venti = experiment: Test Example 5: herbicidal effect by foliage application, plastic box (symbol L); conditions: 320 g/ha, 3 weeks after application
Summary of the method: as §3

Veronica persica = experiment: Test Example 5: herbicidal effect by foliage application, plastic box (symbol R); conditions: 320 g/ha, 3 weeks after application
Summary of the method: as §3

corn [5] = experiment: Test Example 5: effect on crop by foliage application, plastic box (symbol c); conditions: 320 g/ha, 3 weeks after application
Summary of the method: (§4)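 Diluvial soil, sterilized and boxed (21 × 13 × 7 cm), received spot-sown seed covered by about 1.5 cm soil; plants were then greenhouse-grown at 25–30° C.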

soybean = experiment: Test Example 5: effect on crop by foliage application, plastic box (symbol d); conditions: 320 g/ha, 3 weeks after application
Summary of the method: as §4

wheat [6] = experiment: Test Example 5: effect on crop by foliage application, plastic box (symbol e); conditions: 320 g/ha, 3 weeks after application
Summary of the method: as §4

rapeseed = experiment: Test Example 5: effect on crop by foliage application, plastic box (symbol g); conditions: 320 g/ha, 3 weeks after application
Summary of the method: as §4

[7] = application herbicide amount 320 g/ha

Row | SMILES | Herbicidal effect grade, B: Scirpus juncoides (Scirpus juncoides) | herbicidal effect on H (Echinochloa crus-galli var. crus-galli), grade 0-5 [1] | F: Digitaria ciliaris, herbicidal effect (criteria 0-5) (Digitaria ciliaris) | L: Apera spica-venti, herbicidal effect (criteria 0-5) (Apera spica-venti) | R: Veronica persica, herbicidal effect (criteria 0-5) (Veronica persica) | c: corn, effect on crop (criteria 0-5) (corn [5]) | d: soybean, effect on crop (criteria 0-5) (soybean) | e: wheat, effect on crop (criteria 0-5) (wheat [6]) | G (Setaria viridis) herbicidal effect grade (Setaria viridis; [7]) | H (Echinochloa crus-galli var. crus-galli) herbicidal effect grade [2, 7] | J (Alopecurus myosuroides) herbicidal effect grade (Alopecurus myosuroides; [7]) | K (Lolium multiflorum Lam.) herbicidal effect grade (Lolium multiflorum Lam.; [7]) | P (Stellaria media) herbicidal effect grade (Stellaria media; [7]) | c (corn) effect on crop grade (corn [3]; [7]) | b (directly sowed rice plant) effect on crop grade (rice; [7]) | e (wheat) effect on crop grade (wheat [4]; [7]) | other results
1 | CON=C(CC1CC(O)=C(c2c(C)cc(C)cc2C)C1=O)C1CCCCC1 (stereo not drawn) [1-085] | 0 (Herbicidal ratio of 5% or lower (almost no effect)) | 5 (Herbicidal ratio of 90% or more (almost completely withered)) | 3 (Herbicidal ratio of 40% or higher and lower than 70%) | 3 (Herbicidal ratio of 40% or higher and lower than 70%) | 0 (Herbicidal ratio of 5% or lower (almost no effect)) | 5 (Herbicidal ratio of 90% or more (almost completely withered)) | 0 (Herbicidal ratio of 5% or lower (almost no effect)) | 3 (Herbicidal ratio of 40% or higher and lower than 70%) | – | – | – | – | – | – | – | – | G: Setaria viridis, herbicidal effect grade (Setaria viridis; 320 g/ha): 5 (Herbicidal ratio of 90% or more (almost completely withered)); H: Echinochloa crus-galli var. crus-galli, herbicidal effect grade ([2]; 320 g/ha): 1 (Herbicidal ratio of 5% or higher and lower than 20%); J: Alopecurus myosuroides, herbicidal effect grade (Alopecurus myosuroides; 320 g/ha): 3 (Herbicidal ratio of 40% or higher and lower than 70%); K: Lolium multiflorum Lam., herbicidal effect grade (Lolium multiflorum Lam.; 320 g/ha): 3 (Herbicidal ratio of 40% or higher and lower than 70%); P: Stellaria media, herbicidal effect grade (Stellaria media; 320 g/ha): 0 (Herbicidal ratio of 5% or lower (almost no effect)); c: corn, effect grade on crop (corn [3]; 320 g/ha): 0 (Herbicidal ratio of 5% or lower (almost no effect)); b: directly sowed rice plant, effect grade on crop (rice; 320 g/ha): 5 (Herbicidal ratio of 90% or more (almost completely withered)); e: wheat, effect grade on crop (wheat [4]; 320 g/ha): 0 (Herbicidal ratio of 5% or lower (almost no effect)); g: rapeseed, effect on crop (criteria 0-5) (rapeseed): 1 (Herbicidal ratio of 5% or higher and lower than 20%)
2 | CCC(CC1CC(O)=C(c2c(C)cc(C)cc2C)C1=O)=NOC (stereo not drawn) [1-038] | 5 (Herbicidal ratio of 90% or more (almost completely withered)) | 5 (Herbicidal ratio of 90% or more (almost completely withered)) | – | – | – | – | – | – | 5 (Herbicidal ratio of 90% or more (almost completely withered)) | 5 (Herbicidal ratio of 90% or more (almost completely withered)) | 5 (Herbicidal ratio of 90% or more (almost completely withered)) | 5 (Herbicidal ratio of 90% or more (almost completely withered)) | 0 (Herbicidal ratio of 5% or lower (almost no effect)) | 3 (Herbicidal ratio of 40% or higher and lower than 70%) | 5 (Herbicidal ratio of 90% or more (almost completely withered)) | 3 (Herbicidal ratio of 40% or higher and lower than 70%) | F: Digitaria ciliaris, herbicidal effect grade (Digitaria ciliaris): 5 (Herbicidal ratio of 90% or more (almost completely withered)); L: Apera spica-venti, herbicidal effect grade (Apera spica-venti): 5 (Herbicidal ratio of 90% or more (almost completely withered)); R: Veronica persica, herbicidal effect grade (Veronica persica): 1 (Herbicidal ratio of 5% or higher and lower than 20%); c: corn, effect on crop grade (corn [5]): 4 (Herbicidal ratio of 70% or higher and lower than 90%); d: soybean, effect on crop grade (soybean): 4 (Herbicidal ratio of 70% or higher and lower than 90%); e: wheat, effect on crop grade (wheat [6]): 4 (Herbicidal ratio of 70% or higher and lower than 90%); g: rapeseed, effect on crop grade (rapeseed): 4 (Herbicidal ratio of 70% or higher and lower than 90%)
3 | CON=C(C)CC1CC(OC(=O)COc2ccc(Cl)cc2Cl)=C(c2c(C)cc(C)cc2C)C1=O (stereo not drawn) [1-075] | 4 (Herbicidal ratio of 70% or higher and lower than 90%) | 5 (Herbicidal ratio of 90% or more (almost completely withered)) | 5 (Herbicidal ratio of 90% or more (almost completely withered)) | 5 (Herbicidal ratio of 90% or more (almost completely withered)) | 0 (Herbicidal ratio of 5% or lower (almost no effect)) | 4 (Herbicidal ratio of 70% or higher and lower than 90%) | 1 (Herbicidal ratio of 5% or higher and lower than 20%) | 5 (Herbicidal ratio of 90% or more (almost completely withered)) | 5 (Herbicidal ratio of 90% or more (almost completely withered)) | 5 (Herbicidal ratio of 90% or more (almost completely withered)) | 5 (Herbicidal ratio of 90% or more (almost completely withered)) | 5 (Herbicidal ratio of 90% or more (almost completely withered)) | 0 (Herbicidal ratio of 5% or lower (almost no effect)) | 5 (Herbicidal ratio of 90% or more (almost completely withered)) | 5 (Herbicidal ratio of 90% or more (almost completely withered)) | 4 (Herbicidal ratio of 70% or higher and lower than 90%) | –
4 | CC(=O)CC1CC(O)=C(c2c(C)cc(-c3ccc(OC(F)(F)F)cc3)cc2C)C1=O (stereo not drawn) [7-016] | – | 0 (Herbicidal ratio of 5% or lower (almost no effect)) | – | – | – | – | – | – | – | – | – | – | – | – | – | – | Herbicidal effect grade, G: Setaria viridis (Setaria viridis; [7]): 2 (Herbicidal ratio of 20% or higher and lower than 40%); Herbicidal effect grade, H: Echinochloa crus-galli var. crus-galli [2, 7]: 2 (Herbicidal ratio of 20% or higher and lower than 40%); Herbicidal effect grade, J: Alopecurus myosuroides (Alopecurus myosuroides; [7]): 0 (Herbicidal ratio of 5% or lower (almost no effect)); Herbicidal effect grade, K: Lolium multiflorum Lam. (Lolium multiflorum Lam.; [7]): 0 (Herbicidal ratio of 5% or lower (almost no effect)); Herbicidal effect grade, P: Stellaria media (Stellaria media; [7]): 0 (Herbicidal ratio of 5% or lower (almost no effect)); Effect on crop grade, c: corn (corn [3]; [7]): 0 (Herbicidal ratio of 5% or lower (almost no effect)); Effect on crop grade, b: directly sowed rice plant (rice; [7]): 0 (Herbicidal ratio of 5% or lower (almost no effect)); Effect on crop grade, e: wheat (wheat [4]; [7]): 0 (Herbicidal ratio of 5% or lower (almost no effect)); F: Digitaria ciliaris, herbicidal effect (criteria of Test Example 1) (Digitaria ciliaris): 0 (Herbicidal ratio of 5% or lower (almost no effect)); L: Apera spica-venti, herbicidal effect (criteria of Test Example 1) (Apera spica-venti): 0 (Herbicidal ratio of 5% or lower (almost no effect)); R: Veronica persica, herbicidal effect (criteria of Test Example 1) (Veronica persica): 0 (Herbicidal ratio of 5% or lower (almost no effect)); c: corn, effect on crop (criteria of Test Example 1) (corn [5]): 0 (Herbicidal ratio of 5% or lower (almost no effect)); d: soybean, effect on crop (criteria of Test Example 1) (soybean): 0 (Herbicidal ratio of 5% or lower (almost no effect)); e: wheat, effect on crop (criteria of Test Example 1) (wheat [6]): 0 (Herbicidal ratio of 5% or lower (almost no effect)); g: rapeseed, effect on crop (criteria of Test Example 1) (rapeseed): 0 (Herbicidal ratio of 5% or lower (almost no effect))
